#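 A five-concentration, 48-hour dose response in 96-well plates underlies each endpoint, interpolated linearly between surrounding concentrations. GI50: concentration for 50% inhibition of growth. TGI marks complete inhibition of growth.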
# How the values were obtained:
# Experiment in all cases: DTP human tumour cell line panel, 48 h
# 786-0 renal = tested on: 786-0 renal
# A498 renal = tested on: A498 renal
# CCRF-CEM leukemia = tested on: CCRF-CEM leukemia
# M14 melanoma = tested on: M14 melanoma
# NCI-H226 lung = tested on: NCI-H226 lung
# OVCAR-8 ovarian = tested on: OVCAR-8 ovarian
# RXF 393 renal = tested on: RXF 393 renal
# SN12C renal = tested on: SN12C renal
# U251 CNS = tested on: U251 CNS
# HCC-2998 colon = tested on: HCC-2998 colon
Compound,TGI (786-0 renal),TGI (A498 renal),TGI (CCRF-CEM leukemia),TGI (M14 melanoma),TGI (NCI-H226 lung),TGI (OVCAR-8 ovarian),TGI (RXF 393 renal),TGI (SN12C renal),TGI (U251 CNS),TGI (HCC-2998 colon),GI50 (786-0 renal),GI50 (A498 renal),GI50 (CCRF-CEM leukemia),GI50 (M14 melanoma),GI50 (NCI-H226 lung),GI50 (OVCAR-8 ovarian),GI50 (RXF 393 renal),GI50 (SN12C renal),GI50 (U251 CNS),GI50 (HCC-2998 colon)
COc1ccc(Cc2ccc3[nH]c(=O)cc(C)c3c2)cc1S(=O)(=O)O,> 100 µM,> 100 µM,> 100 µM,> 100 µM,> 100 µM,> 100 µM,> 100 µM,> 100 µM,> 100 µM,,,,,,,,,,,
O=[N+]([O-])c1cc(I)cc(/C=N/NS(=O)(=O)c2ccc(F)cc2)c1O,82.9 µM,91.6 µM,53.9 µM,82.3 µM,,55.3 µM,49.9 µM,54.1 µM,59.9 µM,> 100 µM,,,,,,,,,,
COc1ccc2c(c1)/C(=C\c1c(-c3ccccc3)nc3sccn13)C(=O)N2,31.2 µM,5.11 µM,> 100 µM,18.4 µM,33.7 µM,> 72.2 µM,21.4 µM,> 26.6 µM,27.9 µM,,9.01 µM,630 nM,5.5 µM,7.11 µM,3.44 µM,20.9 µM,2690 nM,9.57 µM,5.88 µM,
C/C(COc1ccc2oc(-c3ccccc3)cc(=O)c2c1)=N\O,> 100 µM,,> 100 µM,46.3 µM,> 100 µM,> 100 µM,> 100 µM,> 100 µM,37.2 µM,> 100 µM,9.05 µM,,41.4 µM,15.3 µM,> 100 µM,> 100 µM,> 100000 nM,24 µM,14.4 µM,19.5 µM
